Data published in publication PMC8222254, “Self-assembly of an anion receptor with metal-dependent kinase inhibition and potent in vitro anti-cancer properties” (Nature Communications, 2021).
Where “and” joins values, the source holds several entries; their conditions need not be identical. Identical values can stand only once.

Tests used:
Assay in all cases: Kinase inhibition screen, cell-free 33P ATP assay at 10 μM
Format in all cases: biochemical
[1] = target: 140 purified human kinases (Homo sapiens, UniProt P14616); settings: IRR
In short: (§1)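 Radiometric ^33P ATP cell-free format with purified enzymes; both complexes run at 10 μM in duplicate, results plotted on a kinome map via HGNC symbols.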

[2] = target: 140 purified human kinases (Homo sapiens, UniProt P49841); settings: GSK3b
140 purified human kinases (Homo sapiens, UniProt P49841), sequence (P49841 whole entry): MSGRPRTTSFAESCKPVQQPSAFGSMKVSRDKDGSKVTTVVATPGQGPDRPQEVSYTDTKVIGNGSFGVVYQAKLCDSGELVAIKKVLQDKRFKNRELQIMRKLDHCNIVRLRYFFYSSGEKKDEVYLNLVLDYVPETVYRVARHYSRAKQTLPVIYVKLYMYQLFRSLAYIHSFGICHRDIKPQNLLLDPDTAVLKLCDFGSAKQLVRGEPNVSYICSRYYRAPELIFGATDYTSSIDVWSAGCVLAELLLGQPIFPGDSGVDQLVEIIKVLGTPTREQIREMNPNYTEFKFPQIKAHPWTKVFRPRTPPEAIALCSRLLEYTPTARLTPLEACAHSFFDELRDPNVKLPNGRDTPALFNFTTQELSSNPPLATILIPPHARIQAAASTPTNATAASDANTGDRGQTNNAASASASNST
In short: as §1

[3] = target: 140 purified human kinases (Homo sapiens, UniProt P07947)
In short: as §1

[4] = target: 140 purified human kinases (Homo sapiens, UniProt P68400)
In short: as §1

[5] = target: T1, 140 purified human kinases (Homo sapiens, UniProt P54760)
T1 sequence (P54760 16-987): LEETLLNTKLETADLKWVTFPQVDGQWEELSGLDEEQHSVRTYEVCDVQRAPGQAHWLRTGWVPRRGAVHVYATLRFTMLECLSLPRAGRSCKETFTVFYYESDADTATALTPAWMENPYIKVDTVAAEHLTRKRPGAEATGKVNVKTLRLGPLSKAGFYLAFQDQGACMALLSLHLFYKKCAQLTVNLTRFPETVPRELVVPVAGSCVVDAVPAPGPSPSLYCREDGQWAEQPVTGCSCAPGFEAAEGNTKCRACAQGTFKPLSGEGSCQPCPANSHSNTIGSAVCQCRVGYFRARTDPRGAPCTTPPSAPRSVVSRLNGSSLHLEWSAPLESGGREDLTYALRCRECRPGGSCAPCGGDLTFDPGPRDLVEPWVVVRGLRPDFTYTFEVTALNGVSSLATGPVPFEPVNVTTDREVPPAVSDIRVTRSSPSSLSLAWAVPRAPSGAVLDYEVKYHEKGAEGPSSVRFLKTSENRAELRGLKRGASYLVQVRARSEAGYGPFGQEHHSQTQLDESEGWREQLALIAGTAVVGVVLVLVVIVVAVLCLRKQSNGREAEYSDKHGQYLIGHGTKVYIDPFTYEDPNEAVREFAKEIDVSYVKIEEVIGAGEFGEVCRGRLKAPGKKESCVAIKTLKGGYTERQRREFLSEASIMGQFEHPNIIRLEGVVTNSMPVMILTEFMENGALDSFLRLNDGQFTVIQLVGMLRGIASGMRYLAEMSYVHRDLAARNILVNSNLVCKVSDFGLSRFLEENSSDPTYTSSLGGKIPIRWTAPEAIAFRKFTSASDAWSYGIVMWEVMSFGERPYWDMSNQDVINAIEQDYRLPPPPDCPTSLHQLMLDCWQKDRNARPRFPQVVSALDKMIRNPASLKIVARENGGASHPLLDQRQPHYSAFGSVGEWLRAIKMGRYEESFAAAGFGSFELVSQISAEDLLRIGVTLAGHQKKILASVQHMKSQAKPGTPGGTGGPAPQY
In short: as §1

[6] = target: 140 purified human kinases (Homo sapiens, UniProt Q15303)
140 purified human kinases (Homo sapiens, UniProt Q15303), sequence (Q15303 26-1308): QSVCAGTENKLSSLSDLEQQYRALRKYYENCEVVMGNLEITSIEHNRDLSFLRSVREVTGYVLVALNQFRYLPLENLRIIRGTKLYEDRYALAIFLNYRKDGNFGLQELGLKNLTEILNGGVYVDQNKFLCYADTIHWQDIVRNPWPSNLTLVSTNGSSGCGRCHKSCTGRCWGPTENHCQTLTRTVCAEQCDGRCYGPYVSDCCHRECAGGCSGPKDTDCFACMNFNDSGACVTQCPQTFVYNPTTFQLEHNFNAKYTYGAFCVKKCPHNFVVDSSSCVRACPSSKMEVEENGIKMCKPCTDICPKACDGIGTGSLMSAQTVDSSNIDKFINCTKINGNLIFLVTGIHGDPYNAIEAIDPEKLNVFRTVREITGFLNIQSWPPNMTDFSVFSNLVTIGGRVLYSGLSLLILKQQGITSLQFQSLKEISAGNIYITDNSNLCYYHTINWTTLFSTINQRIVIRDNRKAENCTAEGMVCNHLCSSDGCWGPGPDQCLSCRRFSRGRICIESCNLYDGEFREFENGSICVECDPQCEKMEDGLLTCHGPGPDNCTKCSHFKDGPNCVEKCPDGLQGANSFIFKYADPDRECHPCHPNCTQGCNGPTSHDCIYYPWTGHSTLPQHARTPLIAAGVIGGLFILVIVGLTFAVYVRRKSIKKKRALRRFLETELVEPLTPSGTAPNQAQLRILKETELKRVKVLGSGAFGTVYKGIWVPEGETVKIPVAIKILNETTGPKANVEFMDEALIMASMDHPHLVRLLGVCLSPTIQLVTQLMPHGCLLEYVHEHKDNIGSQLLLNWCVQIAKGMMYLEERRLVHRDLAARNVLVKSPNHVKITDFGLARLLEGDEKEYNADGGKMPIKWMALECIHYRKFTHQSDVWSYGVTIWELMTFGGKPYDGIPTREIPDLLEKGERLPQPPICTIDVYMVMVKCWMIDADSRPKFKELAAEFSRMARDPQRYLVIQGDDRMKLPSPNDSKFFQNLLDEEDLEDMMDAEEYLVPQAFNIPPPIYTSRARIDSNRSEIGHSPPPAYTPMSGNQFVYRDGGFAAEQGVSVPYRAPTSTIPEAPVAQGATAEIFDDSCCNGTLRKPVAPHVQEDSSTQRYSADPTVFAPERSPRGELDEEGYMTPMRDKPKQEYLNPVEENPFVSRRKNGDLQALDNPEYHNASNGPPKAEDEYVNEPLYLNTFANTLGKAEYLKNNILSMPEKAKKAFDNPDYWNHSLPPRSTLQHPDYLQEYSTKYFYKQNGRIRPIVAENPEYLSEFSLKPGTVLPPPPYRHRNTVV
In short: as §1

[7] = target: 140 purified human kinases (Homo sapiens, UniProt P04629); settings: TrkA
140 purified human kinases (Homo sapiens, UniProt P04629), sequence (P04629 33-796): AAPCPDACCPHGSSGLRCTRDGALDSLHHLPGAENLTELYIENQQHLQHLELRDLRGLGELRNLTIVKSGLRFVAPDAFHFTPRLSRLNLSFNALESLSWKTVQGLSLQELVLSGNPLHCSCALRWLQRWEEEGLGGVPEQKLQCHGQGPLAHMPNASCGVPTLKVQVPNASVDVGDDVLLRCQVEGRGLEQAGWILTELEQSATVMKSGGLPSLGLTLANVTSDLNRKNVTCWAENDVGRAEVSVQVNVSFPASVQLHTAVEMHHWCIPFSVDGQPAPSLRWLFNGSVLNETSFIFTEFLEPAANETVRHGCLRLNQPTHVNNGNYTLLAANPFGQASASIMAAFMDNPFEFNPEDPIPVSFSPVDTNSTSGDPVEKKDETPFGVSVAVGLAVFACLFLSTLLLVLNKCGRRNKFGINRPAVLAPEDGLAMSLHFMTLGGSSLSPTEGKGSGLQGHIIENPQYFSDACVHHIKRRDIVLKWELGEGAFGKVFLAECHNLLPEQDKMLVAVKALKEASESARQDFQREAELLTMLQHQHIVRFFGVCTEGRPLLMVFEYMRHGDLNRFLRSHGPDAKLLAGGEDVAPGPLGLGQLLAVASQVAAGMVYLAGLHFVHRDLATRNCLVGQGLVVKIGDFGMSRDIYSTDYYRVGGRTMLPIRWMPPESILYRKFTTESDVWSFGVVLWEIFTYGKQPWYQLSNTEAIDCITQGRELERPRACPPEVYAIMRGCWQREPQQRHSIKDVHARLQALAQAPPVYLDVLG
In short: as §1

[8] = target: 140 purified human kinases (Homo sapiens, UniProt O75116); settings: ROCK 2
140 purified human kinases (Homo sapiens, UniProt O75116), sequence (O75116 whole entry): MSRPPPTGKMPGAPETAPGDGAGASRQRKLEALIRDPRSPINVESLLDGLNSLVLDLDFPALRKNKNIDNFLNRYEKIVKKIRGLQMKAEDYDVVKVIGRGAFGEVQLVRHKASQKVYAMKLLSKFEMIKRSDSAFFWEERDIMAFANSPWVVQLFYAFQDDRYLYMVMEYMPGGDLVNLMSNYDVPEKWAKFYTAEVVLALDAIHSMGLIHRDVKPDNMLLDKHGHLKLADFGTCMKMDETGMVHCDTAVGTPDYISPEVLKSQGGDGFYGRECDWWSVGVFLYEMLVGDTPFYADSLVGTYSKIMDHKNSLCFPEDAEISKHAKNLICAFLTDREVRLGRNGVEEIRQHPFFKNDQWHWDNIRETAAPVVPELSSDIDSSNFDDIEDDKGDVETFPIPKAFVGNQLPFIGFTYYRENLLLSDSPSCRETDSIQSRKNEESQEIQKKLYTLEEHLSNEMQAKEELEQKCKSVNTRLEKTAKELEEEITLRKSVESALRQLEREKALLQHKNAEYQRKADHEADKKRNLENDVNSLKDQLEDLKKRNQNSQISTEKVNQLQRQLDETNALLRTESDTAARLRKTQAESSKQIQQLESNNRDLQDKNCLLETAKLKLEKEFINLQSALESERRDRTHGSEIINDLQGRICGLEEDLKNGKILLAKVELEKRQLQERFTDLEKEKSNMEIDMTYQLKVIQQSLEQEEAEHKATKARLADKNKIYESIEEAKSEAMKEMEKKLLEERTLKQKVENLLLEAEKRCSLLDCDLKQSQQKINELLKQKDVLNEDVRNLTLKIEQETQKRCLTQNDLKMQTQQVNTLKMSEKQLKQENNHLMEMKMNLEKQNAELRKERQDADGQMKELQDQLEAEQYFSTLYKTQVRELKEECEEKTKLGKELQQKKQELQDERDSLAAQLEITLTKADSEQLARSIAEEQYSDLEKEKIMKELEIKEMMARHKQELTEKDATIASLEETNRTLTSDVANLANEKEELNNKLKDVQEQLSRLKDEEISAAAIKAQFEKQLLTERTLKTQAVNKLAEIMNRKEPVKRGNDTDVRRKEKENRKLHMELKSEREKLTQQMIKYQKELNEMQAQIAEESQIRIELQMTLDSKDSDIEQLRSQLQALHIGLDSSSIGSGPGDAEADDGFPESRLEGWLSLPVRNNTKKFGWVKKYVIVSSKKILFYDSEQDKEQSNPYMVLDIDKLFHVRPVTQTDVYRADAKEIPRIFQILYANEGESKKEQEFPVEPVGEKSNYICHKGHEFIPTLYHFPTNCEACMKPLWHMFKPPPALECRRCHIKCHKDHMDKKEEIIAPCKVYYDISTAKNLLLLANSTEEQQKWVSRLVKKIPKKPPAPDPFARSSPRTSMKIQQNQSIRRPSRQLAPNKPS
In short: as §1

[9] = target: 140 purified human kinases (Homo sapiens, UniProt Q9P1W9)
In short: as §1

[10] = target: 140 purified human kinases (Homo sapiens, UniProt P80192)
140 purified human kinases (Homo sapiens, UniProt P80192), sequence (P80192 whole entry): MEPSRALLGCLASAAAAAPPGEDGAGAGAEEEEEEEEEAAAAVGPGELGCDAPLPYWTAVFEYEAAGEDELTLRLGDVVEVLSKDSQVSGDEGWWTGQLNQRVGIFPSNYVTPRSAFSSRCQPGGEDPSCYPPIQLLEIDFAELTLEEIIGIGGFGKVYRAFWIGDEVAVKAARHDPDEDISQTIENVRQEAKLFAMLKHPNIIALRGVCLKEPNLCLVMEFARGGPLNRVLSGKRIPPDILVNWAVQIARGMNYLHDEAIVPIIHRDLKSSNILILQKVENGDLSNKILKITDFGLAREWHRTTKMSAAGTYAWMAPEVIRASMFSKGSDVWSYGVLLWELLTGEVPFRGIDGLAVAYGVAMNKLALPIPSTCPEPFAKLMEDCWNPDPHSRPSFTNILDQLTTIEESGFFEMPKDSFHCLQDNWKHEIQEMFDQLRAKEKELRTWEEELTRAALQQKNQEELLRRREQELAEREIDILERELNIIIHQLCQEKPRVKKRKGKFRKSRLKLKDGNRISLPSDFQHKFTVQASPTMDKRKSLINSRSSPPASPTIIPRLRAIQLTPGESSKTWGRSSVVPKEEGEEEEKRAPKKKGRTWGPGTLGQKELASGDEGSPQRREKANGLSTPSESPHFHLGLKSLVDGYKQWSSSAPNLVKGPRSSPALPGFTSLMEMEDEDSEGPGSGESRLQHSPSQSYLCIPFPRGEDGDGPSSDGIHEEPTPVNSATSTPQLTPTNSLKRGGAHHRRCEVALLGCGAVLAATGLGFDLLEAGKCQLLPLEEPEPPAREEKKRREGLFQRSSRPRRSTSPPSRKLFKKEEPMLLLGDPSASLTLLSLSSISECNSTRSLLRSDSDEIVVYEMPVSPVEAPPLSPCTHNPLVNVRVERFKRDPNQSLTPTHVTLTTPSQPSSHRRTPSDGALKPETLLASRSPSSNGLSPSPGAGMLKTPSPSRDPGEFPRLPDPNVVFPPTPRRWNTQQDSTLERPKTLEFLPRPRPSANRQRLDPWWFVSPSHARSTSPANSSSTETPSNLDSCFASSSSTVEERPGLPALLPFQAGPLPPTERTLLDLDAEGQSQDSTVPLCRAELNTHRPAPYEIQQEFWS
In short: as §1

[Cu+2].[Cu+2].[Cu+2].c1ccc(-c2csc(NCCN(CCNc3nc(-c4ccccn4)cs3)CCNc3nc(-c4ccccn4)cs3)n2)nc1.c1ccc(-c2csc(NCCN(CCNc3nc(-c4ccccn4)cs3)CCNc3nc(-c4ccccn4)cs3)n2)nc1 [[L2Cu3]6+]
% Inhibition Run 1 [1]: 26.1% | % Inhibition Run 2 [1]: 42.9% | % Inhibition, Mean [1]: 35% | mean % activity [1]: 66% | % activity ([1]; Run 1): 73.9% | % activity ([1]; Run 2): 57.1% | % Inhibition Run 1 [2]: 28.4% | % Inhibition Run 2 [2]: 32.5% | % Inhibition, Mean [2]: 30% | mean % activity [2]: 70% | % activity ([2]; Run 1): 71.6% | % activity ([2]; Run 2): 67.5% | % Inhibition Run 1 ([3]; YES1): 12.4% | % Inhibition Run 2 ([3]; YES1): -9% | % Inhibition, Mean ([3]; YES1): 1.7% | mean % activity ([3]; YES1): 98% | % activity ([3]; YES1, Run 1): 87.6% | % activity ([3]; YES1, Run 2): 109% | % Inhibition Run 1 ([4]; CK2): -0.5% | % Inhibition Run 2 ([4]; CK2): 5.6% | % Inhibition, Mean ([4]; CK2): 2.55% | mean % activity ([4]; CK2): 97% | % activity ([4]; CK2, Run 1): 100.5% | % activity ([4]; CK2, Run 2): 94.4% | % Inhibition Run 1 ([5]; EPH-B4): 53.6% | % Inhibition Run 2 ([5]; EPH-B4): 47.1% | % Inhibition, Mean ([5]; EPH-B4): 50% | mean % activity ([5]; EPH-B4): 50% | % activity ([5]; EPH-B4, Run 1): 46.4% | % activity ([5]; EPH-B4, Run 2): 52.9% | % Inhibition Run 1 ([6]; HER4): 32.7% | % Inhibition Run 2 ([6]; HER4): 23.3% | % Inhibition, Mean ([6]; HER4): 28% | mean % activity ([6]; HER4): 72% | % activity ([6]; HER4, Run 1): 67.3% | % activity ([6]; HER4, Run 2): 76.7% | % Inhibition Run 1 [7]: 78.1% | % Inhibition Run 2 [7]: 61.2% | % Inhibition, Mean [7]: 70% | mean % activity [7]: 30% | % activity ([7]; Run 1): 21.9% | % activity ([7]; Run 2): 38.8% | % Inhibition Run 1 [8]: 83.5% | % Inhibition Run 2 [8]: 77.5% | % Inhibition, Mean [8]: 81% | mean % activity [8]: 20% | % Inhibition Run 1 ([9]; PIM2): -3.6% | % Inhibition Run 2 ([9]; PIM2): 7% | % Inhibition, Mean ([9]; PIM2): 1.7% | mean % activity ([9]; PIM2): 98% | % activity ([9]; PIM2, Run 1): 103.6% | % activity ([9]; PIM2, Run 2): 93% | % Inhibition Run 1 ([10]; MLK1): 83.6% | % Inhibition Run 2 ([10]; MLK1): 85.4% | % Inhibition, Mean ([10]; MLK1): 85% | mean % activity ([10]; MLK1): 16% | % activity ([10]; MLK1, Run 1): 16.4% | % activity ([10]; MLK1, Run 2): 14.6%

CC(=O)[O-].CC(=O)[O-].CC(=O)[O-].CC(=O)[O-].CC(=O)[O-].CC(=O)[O-].[Zn+2].[Zn+2].[Zn+2].c1ccc(-c2csc(NCCN(CCNc3nc(-c4ccccn4)cs3)CCNc3nc(-c4ccccn4)cs3)n2)nc1.c1ccc(-c2csc(NCCN(CCNc3nc(-c4ccccn4)cs3)CCNc3nc(-c4ccccn4)cs3)n2)nc1 [[L2Zn3]6+]
% Inhibition, Mean [1]: 6.6% | % Inhibition, Run 1 / Run 2 [1]: 2.4% and 11% | mean % activity [1]: 93% | % activity ([1]; duplicate runs): 98% and 89% | % Inhibition, Mean [2]: 16% | % Inhibition, Run 1 / Run 2 [2]: 20% and 11% | mean % activity [2]: 84% | % activity ([2]; duplicate runs): 80% and 89% | % Inhibition, Mean ([3]; YES1): 8% | % Inhibition, Run 1 / Run 2 ([3]; YES1): 7% and 8% | mean % activity ([3]; YES1): 92% | % activity ([3]; YES1, duplicate runs): 93% and 92% | % Inhibition, Mean ([4]; CK2): 13% | % Inhibition, Run 1 / Run 2 ([4]; CK2): 15% and 12% | mean % activity ([4]; CK2): 87% | % activity ([4]; CK2, duplicate runs): 85% and 88% | % Inhibition, Mean ([5]; EPH-B4): 52% | % Inhibition, Run 1 / Run 2 ([5]; EPH-B4): 52% | mean % activity ([5]; EPH-B4): 48% | % activity ([5]; EPH-B4, duplicate runs): 48% | % Inhibition, Mean ([6]; HER4): 3.65% | mean % activity ([6]; HER4): 96% | % activity ([6]; HER4, duplicate runs): 88% and 105% | % Inhibition, Mean [7]: 87% | % Inhibition, Run 1 / Run 2 [7]: 88% and 86% | mean % activity [7]: 13% | % Activity inhibition Mean ([7]; 10 µM): 86.5% | % Activity inhibition Run 1 ([7]; 10 µM): 88% | % Activity inhibition Run 2 ([7]; 10 µM): 85% | % Activity remaining Run 1 ([7]; 10 µM): 12% | % Activity remaining Run 2 ([7]; 10 µM): 15% | % activity ([7]; duplicate runs): 12% and 15% | % Activation, Mean value [8]: 17% | % Inhibition, Mean [8]: -17% | % Inhibition, Run 1 / Run 2 [8]: -20% and -14% | mean % activity [8]: 117% | % Activity Run 1 ([8]; 10 µM): 120.0% | % Activity Run 2 ([8]; 10 µM): 114.0% | % activity ([8]; duplicate runs): 120% and 114% | % Inhibition, Mean ([9]; PIM2): 1.85% | mean % activity ([9]; PIM2): 98% | % activity ([9]; PIM2, duplicate runs): 87% and 109% | % Inhibition, Mean ([10]; MLK1): 11% | mean % activity ([10]; MLK1): 89% | % activity ([10]; MLK1, duplicate runs): 83% and 96%
